PMC12136037, “Type II kinase inhibitors that target Parkinson’s disease–associated LRRK2” (Science Advances, 2025)
“And” between values parts separate entries of the source, which are not always exact repeats. Equal entries are not always repeated. Where two headings read alike, the source gives them in different places.

Columns and labels:
[1] = target: T1, 350 wild-type kinases (Homo sapiens, UniProt O00238); assay: 33PanQinase kinome-wide selectivity profile (Reaction Biology); format: biochemical; conditions: kinase BMPR1B, ATP 3 µM, singlicate
T1 construct: purchased Reaction Biology (assay service)
T1 sequence (O00238 14-502): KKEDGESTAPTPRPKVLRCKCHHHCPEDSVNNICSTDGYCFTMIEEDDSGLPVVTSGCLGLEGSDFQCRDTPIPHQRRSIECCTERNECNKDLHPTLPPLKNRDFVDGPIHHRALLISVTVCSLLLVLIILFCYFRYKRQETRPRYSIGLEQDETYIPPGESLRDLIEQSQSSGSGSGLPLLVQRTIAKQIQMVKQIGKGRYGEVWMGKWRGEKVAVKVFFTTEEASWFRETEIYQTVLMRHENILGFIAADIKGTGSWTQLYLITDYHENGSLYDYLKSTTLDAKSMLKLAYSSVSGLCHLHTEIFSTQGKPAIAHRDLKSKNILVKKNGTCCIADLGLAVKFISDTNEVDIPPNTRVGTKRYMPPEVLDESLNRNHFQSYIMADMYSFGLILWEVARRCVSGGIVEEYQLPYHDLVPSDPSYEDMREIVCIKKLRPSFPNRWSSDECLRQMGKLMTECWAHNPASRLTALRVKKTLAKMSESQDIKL
Experimental: (§1) Compound RN341 was tested at two concentrations of 1 and 10 μM against a panel of 350 wild-type kinases in the ^33PanQinase assay. The assay was performed by Reaction Biology (www.reactionbiology.com/services/kinase-assays/kinase-panel-screening/).

[2] = target: T2, 350 wild-type kinases (Homo sapiens, UniProt P49760); assay: as above; format: biochemical; conditions: kinase CLK2, ATP 0,3 µM, singlicate
T2 construct: purchased Reaction Biology (assay service)
T2 sequence (P49760 whole entry): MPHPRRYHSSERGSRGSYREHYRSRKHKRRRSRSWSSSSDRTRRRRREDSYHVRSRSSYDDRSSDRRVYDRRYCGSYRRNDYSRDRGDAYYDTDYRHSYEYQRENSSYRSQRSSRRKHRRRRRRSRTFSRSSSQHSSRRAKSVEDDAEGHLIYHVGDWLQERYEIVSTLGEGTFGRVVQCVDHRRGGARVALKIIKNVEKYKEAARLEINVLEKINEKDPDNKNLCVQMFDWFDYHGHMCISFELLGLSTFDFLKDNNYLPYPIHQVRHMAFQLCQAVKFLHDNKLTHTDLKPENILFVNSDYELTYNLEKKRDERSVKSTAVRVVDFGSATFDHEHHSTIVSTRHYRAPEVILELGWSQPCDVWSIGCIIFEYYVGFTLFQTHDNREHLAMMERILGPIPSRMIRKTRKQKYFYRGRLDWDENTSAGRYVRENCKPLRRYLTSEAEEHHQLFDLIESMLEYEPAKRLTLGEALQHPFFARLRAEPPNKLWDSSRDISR
Experimental: as §1

[3] = target: T3, 350 wild-type kinases (Homo sapiens, UniProt P50613); assay: as above; format: biochemical; conditions: kinase CDK7/CycH/MAT1, ATP 1 µM, singlicate
T3 construct: purchased Reaction Biology (assay service)
T3 sequence (P50613 whole entry): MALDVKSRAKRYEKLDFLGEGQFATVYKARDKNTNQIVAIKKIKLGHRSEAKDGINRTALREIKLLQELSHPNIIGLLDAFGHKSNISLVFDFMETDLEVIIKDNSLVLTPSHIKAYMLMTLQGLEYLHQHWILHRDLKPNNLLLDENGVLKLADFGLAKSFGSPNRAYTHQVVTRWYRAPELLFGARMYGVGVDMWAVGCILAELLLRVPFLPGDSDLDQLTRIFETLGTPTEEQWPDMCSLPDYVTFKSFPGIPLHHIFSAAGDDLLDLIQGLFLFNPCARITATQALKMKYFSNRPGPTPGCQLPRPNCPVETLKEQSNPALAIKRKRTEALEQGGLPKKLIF
Experimental: as §1

[4] = target: T4, 350 wild-type kinases (Homo sapiens, UniProt P51813); assay: as above; format: biochemical; conditions: kinase BMX, ATP 1 µM, singlicate
T4 construct: purchased Reaction Biology (assay service)
T4 sequence (P51813 whole entry): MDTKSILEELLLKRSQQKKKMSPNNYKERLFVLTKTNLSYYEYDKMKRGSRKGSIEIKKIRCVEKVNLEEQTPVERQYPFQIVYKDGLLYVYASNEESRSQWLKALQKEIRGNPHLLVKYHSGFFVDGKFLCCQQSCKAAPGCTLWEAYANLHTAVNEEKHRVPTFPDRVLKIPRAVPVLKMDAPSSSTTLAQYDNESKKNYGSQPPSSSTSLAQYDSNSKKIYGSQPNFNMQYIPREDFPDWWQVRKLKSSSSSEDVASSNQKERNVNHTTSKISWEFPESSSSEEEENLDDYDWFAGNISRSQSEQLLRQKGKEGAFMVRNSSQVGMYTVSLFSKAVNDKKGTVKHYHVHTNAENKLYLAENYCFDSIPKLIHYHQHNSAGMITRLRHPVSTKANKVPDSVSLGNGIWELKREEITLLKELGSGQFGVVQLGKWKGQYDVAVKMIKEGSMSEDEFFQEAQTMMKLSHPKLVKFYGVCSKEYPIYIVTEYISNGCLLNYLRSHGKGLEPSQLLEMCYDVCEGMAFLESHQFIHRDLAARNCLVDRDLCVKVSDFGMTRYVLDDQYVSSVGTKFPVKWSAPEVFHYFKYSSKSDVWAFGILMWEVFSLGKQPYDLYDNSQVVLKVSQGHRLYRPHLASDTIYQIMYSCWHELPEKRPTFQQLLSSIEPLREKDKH
Experimental: as §1

[5] = target: T5, 350 wild-type kinases (Homo sapiens, UniProt P78368); assay: as above; format: biochemical; conditions: kinase CK1gamma2, ATP 0,1 µM, singlicate
T5 construct: purchased Reaction Biology (assay service)
T5 sequence (P78368 whole entry): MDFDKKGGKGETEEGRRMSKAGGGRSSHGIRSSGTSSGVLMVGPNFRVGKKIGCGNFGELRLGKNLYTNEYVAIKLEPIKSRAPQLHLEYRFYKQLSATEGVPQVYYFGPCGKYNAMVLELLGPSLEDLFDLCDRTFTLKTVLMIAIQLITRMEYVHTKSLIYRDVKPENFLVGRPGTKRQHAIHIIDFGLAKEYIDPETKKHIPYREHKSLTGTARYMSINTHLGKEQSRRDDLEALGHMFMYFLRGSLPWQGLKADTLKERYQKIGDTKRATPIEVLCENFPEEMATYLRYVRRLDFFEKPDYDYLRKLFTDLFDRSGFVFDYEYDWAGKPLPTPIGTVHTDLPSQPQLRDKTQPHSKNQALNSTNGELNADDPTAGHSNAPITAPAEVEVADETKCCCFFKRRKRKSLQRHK
Experimental: as §1

[6] = target: T6, 350 wild-type kinases (Homo sapiens, UniProt Q13131); assay: as above; format: biochemical; conditions: kinase AMPKalpha1, ATP 3 µM, singlicate
T6 construct: purchased Reaction Biology (assay service)
T6 sequence (Q13131 whole entry): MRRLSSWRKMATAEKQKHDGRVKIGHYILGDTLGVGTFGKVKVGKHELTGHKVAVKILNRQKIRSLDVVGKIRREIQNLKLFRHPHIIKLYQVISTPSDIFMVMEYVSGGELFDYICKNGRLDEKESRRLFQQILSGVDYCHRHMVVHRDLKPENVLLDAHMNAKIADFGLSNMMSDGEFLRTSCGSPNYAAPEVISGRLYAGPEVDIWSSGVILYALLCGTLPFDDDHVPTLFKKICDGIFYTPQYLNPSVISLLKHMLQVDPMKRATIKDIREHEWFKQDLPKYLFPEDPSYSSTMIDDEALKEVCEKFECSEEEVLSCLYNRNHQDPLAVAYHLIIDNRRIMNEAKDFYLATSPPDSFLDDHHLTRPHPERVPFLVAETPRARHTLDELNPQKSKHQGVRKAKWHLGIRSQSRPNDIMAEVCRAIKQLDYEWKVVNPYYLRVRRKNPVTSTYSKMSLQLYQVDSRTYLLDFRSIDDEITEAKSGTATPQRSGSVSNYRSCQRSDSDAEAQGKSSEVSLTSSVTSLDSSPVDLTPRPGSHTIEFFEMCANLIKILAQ
Experimental: as §1

[7] = target: T7, 350 wild-type kinases (Homo sapiens, UniProt Q8IWQ3); assay: as above; format: biochemical; conditions: kinase BRSK2, ATP 1 µM, singlicate
T7 construct: purchased Reaction Biology (assay service)
T7 sequence (Q8IWQ3 whole entry): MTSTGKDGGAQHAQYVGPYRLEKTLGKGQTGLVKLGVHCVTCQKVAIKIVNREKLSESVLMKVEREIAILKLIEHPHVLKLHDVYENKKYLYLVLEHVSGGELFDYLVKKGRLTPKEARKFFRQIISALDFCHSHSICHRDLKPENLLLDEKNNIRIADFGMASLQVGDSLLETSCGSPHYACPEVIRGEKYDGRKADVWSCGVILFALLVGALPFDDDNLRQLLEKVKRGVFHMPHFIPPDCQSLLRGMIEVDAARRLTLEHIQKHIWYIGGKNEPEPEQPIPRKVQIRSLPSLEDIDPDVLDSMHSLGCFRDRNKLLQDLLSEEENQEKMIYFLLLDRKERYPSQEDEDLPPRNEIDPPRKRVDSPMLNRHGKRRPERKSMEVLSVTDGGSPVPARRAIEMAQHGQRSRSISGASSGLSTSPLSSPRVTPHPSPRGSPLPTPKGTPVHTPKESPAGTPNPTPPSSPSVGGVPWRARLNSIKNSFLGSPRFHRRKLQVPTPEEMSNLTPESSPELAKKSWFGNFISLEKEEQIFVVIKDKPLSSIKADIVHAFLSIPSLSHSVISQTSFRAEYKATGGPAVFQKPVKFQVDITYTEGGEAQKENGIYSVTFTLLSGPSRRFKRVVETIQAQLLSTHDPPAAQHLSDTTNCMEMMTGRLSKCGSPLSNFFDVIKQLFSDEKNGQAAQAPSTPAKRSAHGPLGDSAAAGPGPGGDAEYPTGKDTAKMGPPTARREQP
Experimental: as §1

[8] = target: T8, 350 wild-type kinases (Homo sapiens, UniProt Q8IZL9); assay: as above; format: biochemical; conditions: singlicate; for Residual activity (% of control), CDK20/CycH: kinase CDK20/CycH, ATP 0,1 µM; for Residual activity (% of control), CDK20/CycT1: kinase CDK20/CycT1, ATP 1 µM
T8 construct: purchased Reaction Biology (assay service)
T8 sequence (Q8IZL9 whole entry): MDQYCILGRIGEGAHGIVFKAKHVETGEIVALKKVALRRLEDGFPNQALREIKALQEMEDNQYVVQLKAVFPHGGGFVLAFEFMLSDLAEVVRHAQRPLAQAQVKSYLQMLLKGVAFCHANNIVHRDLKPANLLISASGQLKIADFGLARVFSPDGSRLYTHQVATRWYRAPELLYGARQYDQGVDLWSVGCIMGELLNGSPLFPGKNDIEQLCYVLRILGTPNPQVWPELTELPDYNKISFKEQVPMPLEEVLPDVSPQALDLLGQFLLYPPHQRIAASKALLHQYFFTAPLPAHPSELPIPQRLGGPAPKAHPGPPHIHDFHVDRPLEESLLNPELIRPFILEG
Experimental: as §1

[9] = target: T9, 350 wild-type kinases (Homo sapiens, UniProt Q9UQM7); assay: as above; format: biochemical; conditions: kinase CAMK2A, ATP 3 µM, singlicate
T9 construct: purchased Reaction Biology (assay service)
T9 sequence (Q9UQM7 whole entry): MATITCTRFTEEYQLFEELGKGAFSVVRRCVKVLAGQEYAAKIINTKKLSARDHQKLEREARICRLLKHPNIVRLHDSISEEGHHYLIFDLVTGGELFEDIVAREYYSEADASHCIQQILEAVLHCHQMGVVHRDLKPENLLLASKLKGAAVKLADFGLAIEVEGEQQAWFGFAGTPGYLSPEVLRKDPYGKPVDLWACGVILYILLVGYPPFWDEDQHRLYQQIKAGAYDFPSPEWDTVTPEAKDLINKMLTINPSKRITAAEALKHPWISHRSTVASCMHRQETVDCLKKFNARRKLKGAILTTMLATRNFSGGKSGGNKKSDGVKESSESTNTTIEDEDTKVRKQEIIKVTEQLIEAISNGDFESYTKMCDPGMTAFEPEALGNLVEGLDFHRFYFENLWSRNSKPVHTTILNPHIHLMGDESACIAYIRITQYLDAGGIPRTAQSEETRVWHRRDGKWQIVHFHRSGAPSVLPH
Experimental: as §1

[10] = target: T10, 350 wild-type kinases (Homo sapiens, UniProt Q9Y6M4); assay: as above; format: biochemical; conditions: kinase CK1gamma3, ATP 0,1 µM, singlicate
T10 construct: purchased Reaction Biology (assay service)
T10 sequence (Q9Y6M4 whole entry): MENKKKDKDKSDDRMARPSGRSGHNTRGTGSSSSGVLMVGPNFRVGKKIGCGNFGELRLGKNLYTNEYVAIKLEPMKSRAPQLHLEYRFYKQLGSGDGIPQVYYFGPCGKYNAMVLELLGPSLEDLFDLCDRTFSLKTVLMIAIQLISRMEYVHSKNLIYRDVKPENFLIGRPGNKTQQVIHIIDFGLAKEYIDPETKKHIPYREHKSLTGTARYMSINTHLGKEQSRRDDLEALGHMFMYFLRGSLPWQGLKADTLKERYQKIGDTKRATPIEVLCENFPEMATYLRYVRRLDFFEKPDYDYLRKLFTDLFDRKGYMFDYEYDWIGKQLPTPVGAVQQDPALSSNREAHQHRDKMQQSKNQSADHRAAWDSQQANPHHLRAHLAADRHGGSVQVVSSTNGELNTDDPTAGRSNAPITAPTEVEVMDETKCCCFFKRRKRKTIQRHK
Experimental: as §1

[11] = target: T11, TTK (Homo sapiens, UniProt P33981); assay: nanoBRET off-target validation; format: cell-based
T11 construct: host or cells: HEK293T (ATCC CRL-3216)
T11 sequence (P33981 1-857): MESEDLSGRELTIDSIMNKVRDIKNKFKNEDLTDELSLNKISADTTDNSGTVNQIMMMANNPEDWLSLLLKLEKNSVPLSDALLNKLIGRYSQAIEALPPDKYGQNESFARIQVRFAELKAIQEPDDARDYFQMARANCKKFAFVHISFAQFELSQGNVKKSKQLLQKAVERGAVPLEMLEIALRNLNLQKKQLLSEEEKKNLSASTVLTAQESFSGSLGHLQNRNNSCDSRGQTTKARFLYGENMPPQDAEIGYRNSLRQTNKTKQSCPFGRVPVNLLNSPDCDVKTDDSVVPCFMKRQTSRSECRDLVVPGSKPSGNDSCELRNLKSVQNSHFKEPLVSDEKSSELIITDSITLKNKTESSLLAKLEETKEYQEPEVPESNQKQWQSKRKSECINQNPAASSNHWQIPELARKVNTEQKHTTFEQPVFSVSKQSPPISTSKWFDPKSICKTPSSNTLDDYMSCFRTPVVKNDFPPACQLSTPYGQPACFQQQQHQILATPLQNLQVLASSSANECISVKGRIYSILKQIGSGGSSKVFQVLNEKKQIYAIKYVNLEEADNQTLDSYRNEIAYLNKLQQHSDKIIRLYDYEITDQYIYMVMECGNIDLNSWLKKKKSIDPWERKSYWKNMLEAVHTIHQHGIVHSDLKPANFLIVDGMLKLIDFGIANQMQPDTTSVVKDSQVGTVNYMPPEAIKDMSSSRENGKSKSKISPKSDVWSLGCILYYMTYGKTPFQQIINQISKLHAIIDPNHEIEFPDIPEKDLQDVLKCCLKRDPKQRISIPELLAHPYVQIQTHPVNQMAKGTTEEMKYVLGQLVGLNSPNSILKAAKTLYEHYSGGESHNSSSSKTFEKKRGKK

Which results are given for `CCSc1nc(NC)c2c(-c3cccc(NC(=O)Nc4cc(C(C)(C)C)nn4-c4ccc(C)cc4)c3)c[nH]c2n1` [Compound 32]?
Residual activity (% of control), BMPR1B ([1]; Assay Conc. 1.0E-05 M): 102 % of control; Residual activity (% of control), BMPR1B ([1]; Assay Conc. 1.0E-06 M): 109 % of control; Residual activity (% of control), CLK2 ([2]; Assay Conc. 1.0E-05 M): 86 % of control; Residual activity (% of control), CLK2 ([2]; Assay Conc. 1.0E-06 M): 109 % of control; Residual activity (% of control), CDK7/CycH/MAT1 ([3]; Assay Conc. 1.0E-05 M): 75 % of control; Residual activity (% of control), CDK7/CycH/MAT1 ([3]; Assay Conc. 1.0E-06 M): 100 % of control; Residual activity (% of control), BMX ([4]; Assay Conc. 1.0E-05 M): 68 % of control; Residual activity (% of control), BMX ([4]; Assay Conc. 1.0E-06 M): 109 % of control; Residual activity (% of control), CK1gamma2 ([5]; Assay Conc. 1.0E-05 M): 88 % of control; Residual activity (% of control), CK1gamma2 ([5]; Assay Conc. 1.0E-06 M): 102 % of control; Residual activity (% of control), AMPKalpha1 ([6]; Assay Conc. 1.0E-05 M): 85 % of control; Residual activity (% of control), AMPKalpha1 ([6]; Assay Conc. 1.0E-06 M): 95 % of control; Residual activity (% of control), BRSK2 ([7]; Assay Conc. 1.0E-05 M): 84 % of control; Residual activity (% of control), BRSK2 ([7]; Assay Conc. 1.0E-06 M): 103 % of control; Residual activity (% of control), CDK20/CycH ([8]; Assay Conc. 1.0E-05 M): 87 % of control; Residual activity (% of control), CDK20/CycH ([8]; Assay Conc. 1.0E-06 M): 103 % of control; Residual activity (% of control), CDK20/CycT1 ([8]; Assay Conc. 1.0E-05 M): 84 % of control; Residual activity (% of control), CDK20/CycT1 ([8]; Assay Conc. 1.0E-06 M): 99 % of control; Residual activity (% of control), CAMK2A ([9]; Assay Conc. 1.0E-05 M): 63 % of control; Residual activity (% of control), CAMK2A ([9]; Assay Conc. 1.0E-06 M): 94 % of control; Residual activity (% of control), CK1gamma3 ([10]; Assay Conc. 1.0E-05 M): 99 % of control; Residual activity (% of control), CK1gamma3 ([10]; Assay Conc. 1.0E-06 M): 106 % of control; nanoBRET response normalized to 0% (no tracer) and 100% (no inhibitor) control ([11]; TTK, inhibitor 8 nM, two replicates, listed as RN341, 0.008 µM): 91.3329%; remaining activity at 0.008 µM ([11]; TTK, inhibitor 8 nM, two replicates, read-out: nanoBRET response normalized to 0% (no tracer) and 100% (no inhibitor) control): 96.9%; nanoBRET response normalized to 0% (no tracer) and 100% (no inhibitor) control ([11]; TTK, inhibitor 16 nM, two replicates, listed as RN341, 0.016 µM): 88.618%; remaining activity at 0.016 µM ([11]; TTK, inhibitor 16 nM, two replicates, read-out: nanoBRET response normalized to 0% (no tracer) and 100% (no inhibitor) control): 84.1%; nanoBRET response normalized to 0% (no tracer) and 100% (no inhibitor) control ([11]; TTK, inhibitor 50 nM, two replicates, listed as RN341, 0.05 µM): 96.6909%; remaining activity at 0.05 µM ([11]; TTK, inhibitor 50 nM, two replicates, read-out: nanoBRET response normalized to 0% (no tracer) and 100% (no inhibitor) control): 85.3%; nanoBRET response normalized to 0% (no tracer) and 100% (no inhibitor) control ([11]; TTK, inhibitor 250 nM, two replicates, listed as RN341, […]): 83.1162%; remaining activity at […] ([11]; TTK, inhibitor 250 nM, two replicates, read-out: nanoBRET response normalized to 0% (no tracer) and 100% (no inhibitor) control): 80%; nanoBRET response normalized to 0% (no tracer) and 100% (no inhibitor) control ([11]; TTK, inhibitor 500 nM, two replicates, listed as RN341, 0.5 µM): 67.3053%; remaining activity at 0.5 µM ([11]; TTK, inhibitor 500 nM, two replicates, read-out: nanoBRET response normalized to 0% (no tracer) and 100% (no inhibitor) control): 61.5%; nanoBRET response normalized to 0% (no tracer) and 100% (no inhibitor) control ([11]; TTK, inhibitor 2500 nM, two replicates, listed as RN341, […]): 72.9908%; remaining activity at […] ([11]; TTK, inhibitor 2500 nM, two replicates, read-out: nanoBRET response normalized to 0% (no tracer) and 100% (no inhibitor) control): 70.3%; nanoBRET response normalized to 0% (no tracer) and 100% (no inhibitor) control ([11]; TTK, inhibitor 5000 nM, two replicates, listed as RN341, 5 µM): 54.1735%; remaining activity at 5 µM ([11]; TTK, inhibitor 5000 nM, two replicates, read-out: nanoBRET response normalized to 0% (no tracer) and 100% (no inhibitor) control): 40.9%; nanoBRET response normalized to 0% (no tracer) and 100% (no inhibitor) control ([11]; TTK, inhibitor 25000 nM, two replicates, listed as RN341, 25 µM): 18.6146%; remaining activity at 25 µM ([11]; TTK, inhibitor 25000 nM, two replicates, read-out: nanoBRET response normalized to 0% (no tracer) and 100% (no inhibitor) control): 14.2%; EC50 ([11]; in cellulo nanoBRET, 293T cells): < 5 µM and 3.2 µM
